The values that follow come from PMC11208336 (Frontiers in Cellular and Infection Microbiology, 2024).

For the test, the target named is T1, HmuY^Pe (Porphyromonas endodontalis, UniProt C3JC46).
T1 construct: gene POREN0001_0444
In words: biochemical.

As usually defined, the Kd is the free concentration of one partner at which half of the binding sites on the other are occupied at equilibrium, for simple one-to-one binding.

T1 sequence (C3JC46 entry or part of it): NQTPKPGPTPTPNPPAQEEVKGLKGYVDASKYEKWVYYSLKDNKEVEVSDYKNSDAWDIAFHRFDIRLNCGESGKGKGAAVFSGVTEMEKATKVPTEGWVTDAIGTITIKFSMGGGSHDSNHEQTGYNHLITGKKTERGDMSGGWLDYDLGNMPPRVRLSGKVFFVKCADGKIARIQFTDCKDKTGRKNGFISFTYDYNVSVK

In turn, `C=CC1=C(C)C2=Cc3c(C=C)c(C)c4[n]3[Fe][n]3c(c(C)c(CCC(=O)O)c3=CC3=NC(=C4)C(C)=C3CCC(=O)O)=CC1=N2` [Fe(II)heme] gave a Kd of 41 nM.
